# From paper PMC10082830, “A tailored tetravalent peptide displays dual functions to inhibit amyloid β production and aggregation” (Communications Biology, 2023)
# Bridge positions count the residues as written; N and C are the ends. Square brackets hold non-standard residues; d marks the D form. Peptide text beside a SMILES is read from it. I, II: the chains in the order shown. * marks the point of attachment. Cbz = O=C(OCc1ccccc1)*; Ahx = NCCCCCC(=O)O
# How the values were obtained:
# 7WD10 cells = test: Incorporation of biotinylated tetravalent peptides into 7WD10 cells, confocal microscopy; type: cell-based, Chinese Hamster; details: biotinylated peptide 50 µM, 37 °C, 1 h, Alexa Fluor 488-streptavidin
# Experimental: Supplementary Fig. 10: Efficient incorporation of […] into cells.
# 7WD10 cells were cultured at 37° C for 1 h in the presence of biotinylated LME-tet or PME-tet
# (50 µM). Biotinylated peptide was detected using Alexa Fluor 488-conjugated streptavidin.
# Fluorescence images were obtained using confocal laser scanning microscopy to assess the
# incorporation of tetravalent peptides into cells. The scale bars indicate 10 µm.
# Aβ42 = target: T1, Aβ42 (Homo sapiens, UniProt P05067); test: ELISA binding between Aβ and LME peptides; details: Aβ42, n = 3, read-out: apparent Kd
# T1 construct: purchased Peptide Institute
# T1 sequence (P05067 672-713 limits assumed): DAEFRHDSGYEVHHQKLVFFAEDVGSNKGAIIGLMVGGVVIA
# Experimental: (§1) The indicated amounts of LME-tet (8.3 µM) or LME-mono (33 µM) were applied onto each well of a regular 96-well ELISA plate (Thermo Fisher Scientific) and incubated overnight for 24 h. After blocking, the plate was incubated with various concentrations of Aβ1–28, Aβ40, or Aβ42 (Peptide Institute) for 2 h at room temperature. Bound Aβ was detected using mouse monoclonal anti-human Aβ antibody 82E1 (Immuno-Biological Laboratories Co., Ltd.) and HRP-conjugated horse anti-mouse IgG antibody (Cell Signaling Technology).
# Aβ40 = target: T2, Aβ40 (Homo sapiens, UniProt P05067); test: ELISA binding between Aβ and LME peptides; details: Aβ40, n = 4, read-out: apparent Kd
# T2 construct: purchased Peptide Institute
# T2 sequence (P05067 672-711 limits assumed): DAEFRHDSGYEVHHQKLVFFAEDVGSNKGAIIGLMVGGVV
# Experimental: as §1
# [1] = tested on: γ-cleavage of NotchΔE in 7WD10-NotchΔE cells; test: γ-Secretase assay in cells (NotchΔE cleavage); type: cell-based, Chinese Hamster; details: 48 h, cell lysates, western blot with anti-Myc antibody; DAPT 10 µM
# Experimental: (§2) 7WD10 cells were treated with vehicle control or LME-tet at the indicated concentrations for 48 h. Cell lysates were analyzed by western blot. b Effect of LME-tet on production of extracellular sAPPα and sAPPβ Schematic showing α- and β-cleavage sites (top). 7WD10 cells were treated as in (a) and sAPPα and sAPPβ in culture medium were analyzed by western blot (bottom left and right panels, respectively). a, b APP and sAPPα were detected using anti-APP antibody 6E10, and sAPPβ was detected using anti-sAPPβ antibody. Data are graphed as the percentage of the control value, showing the mean ± SE; n = 3–4. Significance vs. vehicle was calculated by ANOVA, followed by one-sided Dunnett’s test; *P < 0.05, **P < 0.01, ***P < 0.001. c Effect of LME-tet on β-cleavage of β-galactoside α-2,6- sialyltransferase 1 (St6gal1) and γ-cleavage of NotchΔE. 7WD10-NotchΔE-St6gal1 cells were treated with LME-tet at the indicated concentrations and β-secretase inhibitor II (βi; 10 µM) for 48 h; culture medium was analyzed by western blot using anti-St6gal1 antibody (left panel). 7WD10-NotchΔE cells were treated with LME-tet at the indicated concentrations and γ-secretase inhibitor DAPT (γi; 10 µM) for 48 h; cell lysates were analyzed by western blot using anti-Myc antibody (right panel). […] Aβ33-FLAG (left) and Aβ (right) were measured by western blot using anti-Aβ antibody 82E1. […]
# [2] = tested on: β-cleavage of St6gal1 in 7WD10-NotchΔE-St6gal1 cells; test: β-Secretase assay in cells (St6gal1 cleavage); type: cell-based, Chinese Hamster; details: 48 h, culture medium, western blot; β-secretase inhibitor II 10 µM
# Experimental: as §2
structure (smiles),measurement,setting,value
"CSCC[C@H](NC(=O)[C@H](CCCNC(=N)N)NC(=O)[C@H](CC(C)C)NC(=O)[C@H](CCCCN)NC(=O)[C@@H]1CCCN1)C(=O)N[C@@H](CCCCN)C(=O)N[C@@H](CCC(=O)O)C(=O)NCCCCCC(=O)NCCCC[C@H](NC(=O)CCCCCNC(=O)[C@H](CCC(=O)O)NC(=O)[C@H](CCCCN)NC(=O)[C@H](CCSC)NC(=O)[C@H](CCCNC(=N)N)NC(=O)[C@H](CC(C)C)NC(=O)[C@H](CCCCN)NC(=O)[C@@H]1CCCN1)C(=O)NCCCC[C@H](NC(=O)[C@H](CCCCNC(=O)CCCCCNC(=O)[C@H](CCC(=O)O)NC(=O)[C@H](CCCCN)NC(=O)[C@H](CCSC)NC(=O)[C@H](CCCNC(=N)N)NC(=O)[C@H](CC(C)C)NC(=O)[C@H](CCCCN)NC(=O)[C@@H]1CCCN1)NC(=O)CCCCCNC(=O)[C@H](CCC(=O)O)NC(=O)[C@H](CCCCN)NC(=O)[C@H](CCSC)NC(=O)[C@H](CCCNC(=N)N)NC(=O)[C@H](CC(C)C)NC(=O)[C@H](CCCCN)NC(=O)[C@@H]1CCCN1)C(N)=O [LME-tet] (I: H-PKLRMKE[Ahx]KK-NH2 / II: H-PKLRMKE[Ahx]K / III: H-PKLRMKE[Ahx] / IV: H-PKLRMKE[Ahx]; amide I:9-IV:C, I:10-II:C, II:9-III:C)",efficiency of incorporation into cells,7WD10 cells,much higher efficacy than PME-tet
same,Kd,Aβ42,200 nM
same,Kd,Aβ40,2700 nM
C[C@H](NC(=O)Cc1cc(F)cc(F)c1)C(=O)N[C@H](C(=O)OC(C)(C)C)c1ccccc1 [DAPT],production of NICD,[1],efficiently inhibits
CC(C)C[C@@H](C=O)NC(=O)[C@H](CC(C)C)NC(=O)[C@@H](NC(=O)OCc1ccccc1)C(C)C [β-secretase inhibitor II] (Cbz-Val-Leu-Leu-aldehyde),production of extracellular St6gal1 fragment,[2],completely suppressed
